Test results: article PMC11859928, “Design, Synthesis, and Antiproliferative Activity of Novel Indole/1,2,4-Triazole Hybrids as Tubulin Polymerization Inhibitors” (Pharmaceuticals, 2025)
Read-outs that look alike come from different tables or passages of the source.

Columns and labels:
[1] = test system: CCRF-CEM; experiment: NCI five-dose assay; assay type: cell-based, human; conditions: for CC50 / GI50: Homo sapiens; for CC50: read-out: LC50 (the source's name); for GI50: read-out: GI50 Conc. per Cell Lines
[2] = test system: HL-60(TB); experiment: NCI five-dose assay; assay type: cell-based, human; conditions: for CC50 / GI50: Homo sapiens; for CC50: read-out: LC50 (the source's name); for GI50: read-out: GI50 Conc. per Cell Lines
[3] = test system: HT29; experiment: NCI five-dose assay; assay type: cell-based, human; conditions: for CC50 / GI50: Homo sapiens, HT-29; for CC50: read-out: LC50 (the source's name); for GI50: read-out: GI50 Conc. per Cell Lines
[4] = test system: KM12; experiment: NCI five-dose assay; assay type: cell-based, human; conditions: for CC50 / GI50: Homo sapiens; for CC50: read-out: LC50 (the source's name); for GI50: read-out: GI50 Conc. per Cell Lines
[5] = test system: SW-620; experiment: NCI five-dose assay; assay type: cell-based, human; conditions: for CC50 / GI50: Homo sapiens; for CC50: read-out: LC50 (the source's name); for GI50: read-out: GI50 Conc. per Cell Lines
[6] = test system: SF-539; experiment: NCI five-dose assay; assay type: cell-based, human; conditions: for CC50 / GI50: Homo sapiens; for CC50: read-out: LC50 (the source's name); for GI50: read-out: GI50 Conc. per Cell Lines
[7] = test system: UACC-257; experiment: NCI five-dose assay; assay type: cell-based, human; conditions: for CC50 / GI50: Homo sapiens; for CC50: read-out: LC50 (the source's name); for GI50: read-out: GI50 Conc. per Cell Lines
[8] = test system: OVCAR-5; experiment: NCI five-dose assay; assay type: cell-based, human; conditions: for LC50 / GI50: Homo sapiens; for GI50: read-out: GI50 Conc. per Cell Lines
[9] = test system: A498; experiment: NCI five-dose assay; assay type: cell-based, human; conditions: for LC50 / GI50: Homo sapiens; for GI50: read-out: GI50 Conc. per Cell Lines
[10] = test system: TK-10; experiment: NCI five-dose assay; assay type: cell-based, human; conditions: for CC50 / GI50: Homo sapiens; for CC50: read-out: LC50 (the source's name); for GI50: read-out: GI50 Conc. per Cell Lines
[11] = test system: PC-3; experiment: NCI five-dose assay; assay type: cell-based, human; conditions: for CC50 / GI50: Homo sapiens; for CC50: read-out: LC50 (the source's name); for GI50: read-out: GI50 Conc. per Cell Lines
[12] = test system: DU-145; experiment: NCI five-dose assay; assay type: cell-based, human; conditions: for CC50 / GI50: Homo sapiens; for CC50: read-out: LC50 (the source's name); for GI50: read-out: GI50 Conc. per Cell Lines
[13] = test system: MDA/MB-231-ATCC; experiment: NCI five-dose assay; assay type: cell-based, human; conditions: for LC50 / GI50: Homo sapiens; for GI50: read-out: GI50 Conc. per Cell Lines
[14] = test system: MDA-MB 231 breast cancer cells; experiment: Cell cycle analysis; assay type: cell-based; conditions: MDA-MB 231, 24 h, IC50 concentration of 7i
Procedure: The impact of compound 7i on cell cycle progression was investigated in MDA-MB 231 breast cancer cells. […] The cell line was handled with PI/Annexin V, and flow cytometry was utilizing a BD FACS Caliber. […] This indicates a cell cycle arrest at the G1 phase transition.
(§1) The MDA-MB231 breast cancer cell line was used for cell cycle study and apoptosis detection. The assay was performed as previously documented (Appendix A).

[15] = test system: MDA-MB 231 cell; experiment: Apoptosis induction assay (Annexin V/PI); assay type: cell-based; conditions: MDA-MB 231, 24 h
Procedure: The MDA-MB 231 cell was labeled with Annexin V/PI, cultured for 24 h, and examined to assess the capacity of 7i to induce apoptosis.
as §1

## Cc1ccc(C(=O)CSc2nnc(-c3c[nH]c4ccccc34)n2-c2ccccc2)cc1 [Compound 6h, 2-((5-(1H-Indol-3-yl)-4-phenyl-4H-1,2,4-triazol-3-yl)thio)-1-(p-tolyl)ethenone]
[1]; Leukemia, 48 h
  CC50: > 100 µM
[1]; Leukemia
  GI50: 54.4 µM
  TGI Conc. per Cell Lines: ˃100 µM
[2]; Leukemia, 48 h
  CC50: > 100 µM
[2]; Leukemia
  GI50: 30.8 µM
  TGI Conc. per Cell Lines: ˃100 µM
[3]; HT29, Colon cancer
  TGI Conc. per Cell Lines: 50.50 µM
  GI50: 15.6 µM
[3]; HT29, Colon cancer, 48 h
  CC50: > 100 µM
[4]; KM12, Colon cancer, 48 h
  CC50: > 100 µM
[4]; KM12, Colon cancer
  GI50: 36.1 µM
  TGI Conc. per Cell Lines: >100 µM
[5]; SW-620, Colon cancer, 48 h
  CC50: > 100 µM
[5]; SW-620, Colon cancer
  GI50: 30.3 µM
  TGI Conc. per Cell Lines: >100 µM
[6]; SF-539, CNS cancer, 48 h
  CC50: 54.2 µM
[6]; SF-539, CNS cancer
  GI50: 15 µM
  TGI Conc. per Cell Lines: 28.50 µM
[7]; UACC-257, Melanoma, 48 h
  CC50: > 100 µM
[7]; UACC-257, Melanoma
  GI50: 28.9 µM
  TGI Conc. per Cell Lines: >100 µM
[8]; OVCAR-5, Ovarian cancer, 48 h
  LC50: 71.5 µM
[8]; OVCAR-5, Ovarian cancer
  GI50: 19.4 µM
  TGI Conc. per Cell Lines: 37.20 µM
[9]; A498, Renal cancer
  TGI Conc. per Cell Lines: 69.40 µM
  GI50: 22.1 µM
[9]; A498, Renal cancer, 48 h
  LC50: > 100 µM
[10]; TK-10, Renal cancer, 48 h
  CC50: 85 µM
[10]; TK-10, Renal cancer
  GI50: 23.2 µM
  TGI Conc. per Cell Lines: 44.40 µM
[11]; PC-3, Prostate cancer, 48 h
  CC50: > 100 µM
[11]; PC-3, Prostate cancer
  GI50: 12.4 µM
  TGI Conc. per Cell Lines: 37.80 µM
[12]; DU-145, Prostate cancer
  TGI Conc. per Cell Lines: >100 µM
  GI50: 4.43 µM
[12]; DU-145, Prostate cancer, 48 h
  CC50: > 100 µM
[13]; Breast cancer
  TGI Conc. per Cell Lines: 32.60 µM
  GI50: 15.4 µM
[13]; Breast cancer, 48 h
  LC50: 69 µM

## O/N=C(\CSc1nnc(-c2c[nH]c3ccccc23)n1-c1ccccc1)c1ccc(Cl)cc1 [Compound 7j, (Z)-2-((5-(1H-Indol-3-yl)-4-phenyl-4H-1,2,4-triazol-3-yl)thio)-1-(4-chlorophenyl) Ethanone Oxime]
[1]; five dose levels
  GI50: 2.85 µM
  CC50: > 100 µM
[2]; five dose levels
  GI50: 2.17 µM
  CC50: > 100 µM
  TGI Conc. per Cell Lines: 6.34 µM
[3]; HT29, five dose levels
  TGI Conc. per Cell Lines: 11.8 µM
  GI50: 3.04 µM
  CC50: > 100 µM
[4]; KM12, five dose levels
  GI50: 4.72 µM
  CC50: > 100 µM
  TGI Conc. per Cell Lines: >100 µM
[5]; SW-620, five dose levels
  GI50: 3.08 µM
  CC50: 83.2 µM
  TGI Conc. per Cell Lines: 16.1 µM
[6]; SF-539, five dose levels
  GI50: 10.2 µM
  CC50: 51.2 µM
  TGI Conc. per Cell Lines: 29.5 µM
[7]; UACC-257, five dose levels
  GI50: 4.67 µM
  CC50: > 100 µM
  TGI Conc. per Cell Lines: 87.8 µM
[8]; OVCAR-5, five dose levels
  LC50: > 100 µM
  GI50: 3.37 µM
  TGI Conc. per Cell Lines: 11.4 µM
[9]; A498, five dose levels
  TGI Conc. per Cell Lines: 65.8 µM
  LC50: 88.6 µM
  GI50: 15.4 µM
[10]; TK-10, five dose levels
  GI50: 3.7 µM
  CC50: > 100 µM
  TGI Conc. per Cell Lines: 17.7 µM
[11]; PC-3, five dose levels
  GI50: 2.31 µM
  CC50: > 100 µM
  TGI Conc. per Cell Lines: 7.29 µM
[12]; DU-145, five dose levels
  TGI Conc. per Cell Lines: 6.32 µM
  GI50: 2.59 µM
  CC50: > 100 µM
[13]; five dose levels
  LC50: > 100 µM
  GI50: 1.87 µM
  TGI Conc. per Cell Lines: 3.66 µM

## O/N=C(\CSc1nnc(-c2c[nH]c3ccccc23)n1-c1ccccc1)c1ccc(Br)cc1 [Compound 7i, (Z)-2-((5-(1H-Indol-3-yl)-4-phenyl-4H-1,2,4-triazol-3-yl)thio)-1-(4-bromophenyl) Ethanone Oxime]
[1]; Leukemia, 48 h
  CC50: > 100 µM
[1]; Leukemia
  GI50: 2.78 µM
[2]; Leukemia, 48 h
  CC50: > 100 µM
[2]; Leukemia
  GI50: 1.92 µM
  TGI Conc. per Cell Lines: 4.55 µM
[3]; HT29, Colon cancer
  TGI Conc. per Cell Lines: 5.03 µM
  GI50: 2.23 µM
[3]; HT29, Colon cancer, 48 h
  CC50: 17.8 µM
[4]; KM12, Colon cancer, 48 h
  CC50: > 100 µM
[4]; KM12, Colon cancer
  GI50: 4.15 µM
  TGI Conc. per Cell Lines: 29.20 µM
[5]; SW-620, Colon cancer, 48 h
  CC50: 62.1 µM
[5]; SW-620, Colon cancer
  GI50: 3.28 µM
  TGI Conc. per Cell Lines: 12.10 µM
[6]; SF-539, CNS cancer, 48 h
  CC50: 38.4 µM
[6]; SF-539, CNS cancer
  GI50: 4.04 µM
  TGI Conc. per Cell Lines: 14.20 µM
[7]; UACC-257, Melanoma, 48 h
  CC50: 72.6 µM
[7]; UACC-257, Melanoma
  GI50: 3.87 µM
  TGI Conc. per Cell Lines: 17.50 µM
[8]; OVCAR-5, Ovarian cancer, 48 h
  LC50: 1.59 µM
[8]; OVCAR-5, Ovarian cancer
  GI50: 2.18 µM
  TGI Conc. per Cell Lines: 5.21 µM
[9]; A498, Renal cancer
  TGI Conc. per Cell Lines: 51.70 µM
  GI50: 1.63 µM
[9]; A498, Renal cancer, 48 h
  LC50: > 100 µM
[10]; TK-10, Renal cancer, 48 h
  CC50: 30.4 µM
[10]; TK-10, Renal cancer
  GI50: 2.8 µM
  TGI Conc. per Cell Lines: 7.63 µM
[11]; PC-3, Prostate cancer, 48 h
  CC50: > 100 µM
[11]; PC-3, Prostate cancer
  GI50: 2.15 µM
  TGI Conc. per Cell Lines: 4.96 µM
[12]; DU-145, Prostate cancer
  TGI Conc. per Cell Lines: 4.08 µM
  GI50: 2.05 µM
[13]; Breast cancer
  TGI Conc. per Cell Lines: 3.26 µM
  GI50: 1.71 µM
[13]; Breast cancer, 48 h
  LC50: 6.21 µM
[14]
  cells in G0/G1 phase (%DIP G1): 83%
[15]
  necrosis percentage (PI/Annexin upper left quadrant): 3.88%

## Cc1ccc(/C(CSc2nnc(-c3c[nH]c4ccccc34)n2-c2ccccc2)=N/O)cc1 [Compound 7h, (Z)-2-((5-(1H-Indol-3-yl)-4-phenyl-4H-1,2,4-triazol-3-yl)thio)-1-(p-tolyl)ethanone Oxime]
[1]; Leukemia, 48 h
  CC50: > 100 µM
[1]; Leukemia
  GI50: 2.14 µM
  TGI Conc. per Cell Lines: 4.98 µM
[2]; Leukemia
  GI50: 1.92 µM
  TGI Conc. per Cell Lines: 3.96 µM
[3]; HT29, Colon cancer
  TGI Conc. per Cell Lines: 4.43 µM
  GI50: 1.99 µM
[4]; KM12, Colon cancer, 48 h
  CC50: > 100 µM
[4]; KM12, Colon cancer
  GI50: 8.64 µM
  TGI Conc. per Cell Lines: >100 µM
[5]; SW-620, Colon cancer, 48 h
  CC50: 7.04 µM
[5]; SW-620, Colon cancer
  GI50: 1.79 µM
  TGI Conc. per Cell Lines: 3.55 µM
[6]; SF-539, CNS cancer, 48 h
  CC50: 9.43 µM
[6]; SF-539, CNS cancer
  GI50: 2.06 µM
  TGI Conc. per Cell Lines: 4.41 µM
[7]; UACC-257, Melanoma, 48 h
  CC50: > 100 µM
[7]; UACC-257, Melanoma
  GI50: 2.57 µM
[8]; OVCAR-5, Ovarian cancer, 48 h
  LC50: 5.73 µM
[8]; OVCAR-5, Ovarian cancer
  GI50: 1.69 µM
  TGI Conc. per Cell Lines: 3.11 µM
[9]; A498, Renal cancer
  TGI Conc. per Cell Lines: 89.10 µM
  GI50: 24.1 µM
[9]; A498, Renal cancer, 48 h
  LC50: > 100 µM
[10]; TK-10, Renal cancer, 48 h
  CC50: 7.9 µM
[10]; TK-10, Renal cancer
  GI50: 1.9 µM
  TGI Conc. per Cell Lines: 3.87 µM
[11]; PC-3, Prostate cancer
  GI50: 1.77 µM
  TGI Conc. per Cell Lines: 3.74 µM
[12]; DU-145, Prostate cancer
  TGI Conc. per Cell Lines: 4.01 µM
  GI50: 1.94 µM
[13]; Breast cancer
  TGI Conc. per Cell Lines: 3.33 µM
  GI50: 1.77 µM
[13]; Breast cancer, 48 h
  LC50: 6.27 µM
